Literature values as cited in patent US10906892B2, “LFA-1 inhibitor and methods of preparation and polymorph thereof” (NOVARTIS PHARMACEUTICALS CORPORATION, priority 2012, dated 2021).

Key:
[1] = target: Lymphocyte Function-Associated Antigen-1 (LFA-1) interactions with ICAM (Homo sapiens, UniProt P20701); conditions: background statement, no data given
[2] = background statement, no data given

Chain of Lymphocyte Function-Associated Antigen-1 (LFA-1) interactions with ICAM (P20701 26-1170): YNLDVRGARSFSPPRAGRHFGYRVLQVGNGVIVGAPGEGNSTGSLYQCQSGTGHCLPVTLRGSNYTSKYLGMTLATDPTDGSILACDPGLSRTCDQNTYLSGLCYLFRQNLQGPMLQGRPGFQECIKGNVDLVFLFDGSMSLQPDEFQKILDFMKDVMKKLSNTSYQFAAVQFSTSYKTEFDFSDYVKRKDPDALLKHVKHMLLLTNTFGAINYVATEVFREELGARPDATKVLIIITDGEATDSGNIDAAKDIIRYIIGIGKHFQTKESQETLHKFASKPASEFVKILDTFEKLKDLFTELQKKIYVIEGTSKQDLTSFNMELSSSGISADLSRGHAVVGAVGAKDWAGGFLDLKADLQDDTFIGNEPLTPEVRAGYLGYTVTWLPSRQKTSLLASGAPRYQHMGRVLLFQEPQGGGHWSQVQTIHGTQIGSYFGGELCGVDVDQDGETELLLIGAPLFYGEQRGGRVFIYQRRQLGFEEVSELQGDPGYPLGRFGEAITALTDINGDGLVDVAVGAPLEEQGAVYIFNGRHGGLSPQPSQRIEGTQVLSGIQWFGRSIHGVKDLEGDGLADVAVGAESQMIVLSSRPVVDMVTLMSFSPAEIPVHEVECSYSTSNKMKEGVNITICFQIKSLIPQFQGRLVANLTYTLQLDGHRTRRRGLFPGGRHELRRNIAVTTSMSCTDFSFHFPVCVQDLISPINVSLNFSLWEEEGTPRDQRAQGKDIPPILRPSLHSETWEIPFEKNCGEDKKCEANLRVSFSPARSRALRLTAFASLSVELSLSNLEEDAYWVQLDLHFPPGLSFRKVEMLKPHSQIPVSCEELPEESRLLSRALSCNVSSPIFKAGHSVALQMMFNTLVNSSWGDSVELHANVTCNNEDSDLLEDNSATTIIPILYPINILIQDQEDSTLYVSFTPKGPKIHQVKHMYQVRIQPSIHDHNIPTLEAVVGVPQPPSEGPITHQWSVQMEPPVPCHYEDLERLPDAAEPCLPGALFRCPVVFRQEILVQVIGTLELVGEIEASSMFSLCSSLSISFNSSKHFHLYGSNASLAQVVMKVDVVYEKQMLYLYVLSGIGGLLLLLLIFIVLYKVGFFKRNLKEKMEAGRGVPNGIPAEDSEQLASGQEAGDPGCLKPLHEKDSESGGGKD
Chain of Lymphocyte Function-Associated Antigen-1 (LFA-1) interactions with ICAM (P05107 23-769 partner): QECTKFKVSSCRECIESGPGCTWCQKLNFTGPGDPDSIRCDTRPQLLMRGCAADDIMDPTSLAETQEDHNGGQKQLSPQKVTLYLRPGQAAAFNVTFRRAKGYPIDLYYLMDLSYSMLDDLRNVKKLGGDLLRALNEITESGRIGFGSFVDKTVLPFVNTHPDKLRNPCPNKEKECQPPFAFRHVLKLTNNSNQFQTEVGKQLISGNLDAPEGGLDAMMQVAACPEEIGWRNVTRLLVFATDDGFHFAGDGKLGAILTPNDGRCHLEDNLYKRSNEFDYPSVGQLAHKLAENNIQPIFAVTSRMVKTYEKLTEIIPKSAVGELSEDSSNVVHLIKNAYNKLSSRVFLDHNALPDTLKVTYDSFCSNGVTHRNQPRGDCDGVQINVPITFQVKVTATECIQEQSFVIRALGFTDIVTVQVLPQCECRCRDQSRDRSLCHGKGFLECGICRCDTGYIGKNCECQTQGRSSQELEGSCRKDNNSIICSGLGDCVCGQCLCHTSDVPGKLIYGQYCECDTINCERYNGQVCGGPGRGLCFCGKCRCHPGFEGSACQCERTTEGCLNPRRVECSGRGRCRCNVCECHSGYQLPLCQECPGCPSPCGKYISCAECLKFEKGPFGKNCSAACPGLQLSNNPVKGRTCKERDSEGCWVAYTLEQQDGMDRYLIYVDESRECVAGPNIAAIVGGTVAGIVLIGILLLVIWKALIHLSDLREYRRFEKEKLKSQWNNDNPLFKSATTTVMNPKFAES

## CS(=O)(=O)c1cccc(C[C@H](NC(=O)c2c(Cl)cc3c(c2Cl)CCN(C(=O)c2ccc4ccoc4c2)C3)C(=O)O)c1 [Formula I]
[1]
  inhibition of LFA-1 interactions with ICAM: effective inhibitor
[2]
  systemic clearance: rapid systemic clearance
